In ChEMBL document CHEMBL6087390, “Pyridine and Pyrimidine hybrids as privileged scaffolds in antimalarial drug discovery: A recent development” (Bioorg Med Chem Lett, 2024) one finds CC50, IC50 and EC50 data, which are given here for 27 compounds.

Data set [1] deals with HepG2. Put plainly: Cytotoxicity against human HepG2 cells assessed as reduction in cell viability incubated for 72 hrs by MTT assay. In kind it is functional.
Data set [2] has as its system Plasmodium falciparum. Put plainly: microbe, parasite or virus in culture. The settings on record: W2.
Description: Antimalarial activity against Plasmodium falciparum W2 assessed as reduction in parasite growth
Data set [3] deals with Plasmodium falciparum. Put plainly: Antimalarial activity against Plasmodium falciparum D6 assessed as reduction in parasite growth. The data set is classed as functional, organism-based.
For data set [4], the system named is HepG2. As to the kind of experiment: Cytotoxicity against human HepG2 cells assessed as reduction in cell viability measured for 48 hrs by MTT assay. In kind it is functional.
In data set [5] the test system is Plasmodium falciparum. Put plainly: Antiparasitic activity against Plasmodium falciparum 3D7 assessed as reduction in parasite growth. In kind it is functional, organism-based.
Data set [6] deals with Plasmodium falciparum. As to the kind of experiment: Antiplasmodial activity against multidrug resistant Plasmodium falciparum K1 assessed as reduction in parasite growth by [3H]-hypoxanthine incorporation assay. In kind it is functional, organism-based.
Data set [7] deals with Plasmodium falciparum. Put plainly: microbe, parasite or virus in culture. As to conditions: W2. The source holds these as a separate data set.
Data set [8] relates to Plasmodium falciparum. Put plainly: Antimalarial activity against Plasmodium falciparum 3D7 assessed as inhibition of parasite growth incubated for 72 hrs by SYBR Green I staining based analysis. In kind it is functional, organism-based. The settings on record: 3D7, 72 h.
Data set [9] relates to HepG2. As to the kind of experiment: Cytotoxicity against human HepG2 cells assessed as reduction in cell viability measured for 48 hrs by SRB assay. In kind it is functional.
The subject of data set [10] is Plasmodium falciparum. Put plainly: Antiplasmodial activity against Plasmodium falciparum Dd2 assessed as reduction in parasite growth measured after 72 hrs by SYBR Green 1 staining based assay. In kind it is functional, organism-based. The settings on record: Dd2, 72 h.
Data set [11] deals with Plasmodium falciparum. As to the kind of experiment: Antiplasmodial activity against CQ-sensitive Plasmodium falciparum NF54. The data set is classed as functional, organism-based.
For data set [12], the system named is HepG2. Put plainly: Cytotoxicity against human HepG2 cells assessed as reduction in cell growth. The data set is classed as functional.
Data set [13] relates to Plasmodium falciparum. Put plainly: Antimalarial activity against Plasmodium falciparum NF54. The data set is classed as functional, organism-based.
Data set [14] concerns Plasmodium falciparum. As to the kind of experiment: Antimalarial activity against Plasmodium falciparum Dd2 assessed as reduction in parasite growth. In kind it is functional, organism-based.
Data set [15] relates to Plasmodium falciparum. Put plainly: Antimalarial activity against Plasmodium falciparum K1 assessed as reduction in parasite growth incubated for 48 hrs by SYBR Green I staining based analysis. The data set is classed as functional, organism-based. As to conditions: K1, 48 h.
A short description of data set [16]: Cytotoxicity against african green monkey Vero cells assessed as cell viability measured after 48 hrs by MTT assay. The data set is classed as toxicity, cell-based, Chlorocebus sabaeus.
Data set [17] in a line: Cytotoxicity against African green monkey Vero cells assessed as reduction in cell growth measured after 72 hrs by MTT assay. The settings on record: African green monkey (Chlorocebus sabaeus). The data set is classed as toxicity, cell-based.
Data set [18] can be described thus: Cytotoxicity against human HFF cells assessed as inhibition of cell viability measured after 48 hrs by MTT assay. The data set is classed as toxicity, cell-based.
The test system of data set [19] is Plasmodium falciparum. As to the kind of experiment: Antiparasitic activity against Plasmodium falciparum. In kind it is functional, organism-based.
Data set [20] has as its system Plasmodium falciparum. Put plainly: microbe, parasite or virus in culture. As to conditions: 3D7, 48 h.
For data set [21], the system named is Plasmodium falciparum. As to the kind of experiment: Antiplasmodial activity against Plasmodium falciparum NF54 assessed as reduction in parasite growth. The data set is classed as functional, organism-based.

≈ marks a conversion by molar mass, not a printed value. Some results are limits rather than exact numbers.

Regarding `Cc1ccccc1-n1nnnc1C(c1cccnc1)N(Cc1cccc(C(F)(F)F)c1)C1CC1` (centres undefined), the CC50 in data set [1] was 15 µM. For `CCN1CCN(c2cc(C)nc(N(CCCNc3ccnc4cc(Cl)ccc34)Cc3cccs3)n2)CC1`, the IC50 in data set [2] turned out to be 10 nM; in data set [3], 32 nM. As to `Cc1ccccc1N(C)C(=O)C(c1cncnc1)N(Cc1cccc(C(F)(F)F)c1)C1CC1` (centres undefined), the CC50 in data set [4] was over 30 µM. Further, the EC50 in data set [5] is 0.4 µM; in [6] it was 0.79 µM. With `CCN(CC)Cc1cc(Nc2ccnc3cc(Cl)ccc23)ccc1O` [AMODIAQUINE], the IC50 was determined as 70 nM in data set [7] and 60 nM in data set [2].

For `Cc1cc(N2CCN(C)CC2)nc(N(CCCNc2ccnc3cc(Cl)ccc23)Cc2cccs2)n1`, the IC50 in [2] was 10 nM; in data set [3], 30 nM. Turning to `CC(=O)N(Cc1cccc(C(F)(F)F)c1)C(c1cncnc1)c1nnnn1-c1ccccc1C` (centres undefined), the EC50 is 15 µM in [8] and over 30 µM in data set [10]. Further, in data set [9], the CC50 was over 30 µM. On to `Cc1ccccc1-n1nnnc1C(c1cncnc1)N(Cc1cccc(C(F)(F)F)c1)C1CC1` (centres undefined), for which the EC50 in [8] was determined as 0.4 µM. In addition, in data set [9], the CC50 came to 37 µM. For the compound `CCN1CCN(c2nc(C)cc(N(CCNc3ccnc4cc(Cl)ccc34)Cc3ccccn3)n2)CC1`, the IC50 is 90 nM in data set [2] and 20 nM in data set [3]. `CC1(C)[C@@H](O)CC[C@]2(C)[C@H]3C(=O)CC4[C@@H]5C[C@@](C)(C(=O)OCc6cn(-c7ccc(C#N)nc7)nn6)CC[C@]5(C)CC[C@@]4(C)[C@]3(C)CC[C@@H]12` (some centres undefined) returned an IC50 in data set [11] of 5.5 µM. In addition, the CC50 in [12] came out at 290 µM. `Cc1nc(OCc2cn(CCCNc3ccnc4cc(Cl)ccc34)nn2)nc(-c2ccc([N+](=O)[O-])cc2)c1C(=O)OC(C)C`: the IC50 turned out to be 40 nM in data set [13] and 4500 nM in data set [14].

With `COC(=O)C1=C(Cn2cc(COc3cc(C(F)(F)F)nc4c(C(F)(F)F)cccc34)nn2)NC(=O)NC1c1ccc(F)cc1` (centres undefined), in data set [15], the IC50 is over 10 µM. Consider `Cc1nc(OCc2cn(CCNc3ccnc4cc(Cl)ccc34)nn2)nc(-c2ccccc2[N+](=O)[O-])c1C(=O)OC(C)C`, for which the IC50 in data set [13] was 180 nM; in data set [14] it was 990 nM. Further, the IC50 at 48 h in data set [16] (African green monkey (Chlorocebus sabaeus)) is 150 µM.

Turning to `FC(F)(F)c1cc(Nc2ncccn2)c2cccc(C(F)(F)F)c2n1`, the IC50 at 72 h in data set [17] was over 559 µM. With `Cc1ncc(C(C(=O)N(C)c2ccccc2C)N(Cc2cccc(C(F)(F)F)c2)C2CC2)cn1` (centres undefined), the CC50 in [4] was over 30 µM. The EC50 worked out at 8.1 µM in data set [5] and 9.8 µM in data set [6]. As for `OC(c1cc(C(F)(F)F)nc2c(C(F)(F)F)cccc12)C1CCCCN1` (centres undefined) [MEFLOQUINE], the IC50 at 72 h in data set [17] was found to be 15 µM. This compound also displayed an IC50 in data set [2] of 10 nM. In the case of `Cc1ncc(Cn2cc(CCOC(=O)c3ccccc3)nn2)c(N)n1`, the IC50 at 48 h in data set [18] is over 200 µM. For the compound `C=C[C@H]1CN2CC[C@H]1C[C@H]2[C@H](O)c1ccnc2ccc(OC)cc12` [QUININE], the IC50 in [7] is 830 nM; in data set [19], 2710 nM; in [20] it was 0.26 µg/mL (≈ 0.801 µM). Turning to `COC(=O)C1=C(Cn2cc(CCOc3cc(C(F)(F)F)nc4c(C(F)(F)F)cccc34)nn2)NC(=O)NC1c1ccc(F)cc1` (centres undefined), in data set [15], the IC50 is over 5 µM. As to `CCN(CC)CCCC(C)Nc1ccnc2cc(Cl)ccc12` (centres undefined) [CHLOROQUINE], the CC50 at 48 h in [16] (chlorocebus sabaeus, time 48 hrs) came out at 393 µM. Moreover, the IC50 at 72 h in data set [17] came to 907 µM. Also, the cytotoxic concentration (CC50) in data set [12] is 45.4 µM.

`Cc1cc(N(CCNc2ccnc3cc(Cl)ccc23)Cc2ccccn2)nc(N2CCN(C)CC2)n1`: the IC50 in data set [3] worked out at 20 nM. Consider `Cc1ncc(Cn2cc(CCOC(=O)c3cccc(Cl)c3)nn2)c(N)n1`, for which, in data set [18], the IC50 at 48 h is over 200 µM. As for `Cc1ncc(C(c2nnnn2C2CC2)N(C2CC2)C2(c3cccc(C(F)(F)F)c3)CC2)cn1` (centres undefined), the EC50 in data set [8] is over 30 µM; in data set [10] it was 21 µM. Also, the CC50 in data set [9] is over 30 µM.

Turning to `CCCN(C(c1cccnc1)c1nnnn1-c1ccccc1C)C1(c2cccc(C(F)(F)F)c2)CC1` (centres undefined), the CC50 in data set [1] came out at 10 µM.

Regarding `COC(=O)C1=C(Cn2cc(COc3cc(C(F)(F)F)nc4c(C(F)(F)F)cccc34)nn2)NC(=O)NC1c1ccc(OC)cc1` (centres undefined), the IC50 in [15] was over 5 µM. As to `COc1ccc(C(F)(F)F)cc1CN(C1CC1)C(c1cccnc1)c1nnnn1-c1ccccc1C` (centres undefined), in data set [1], the CC50 worked out at 16 µM.

As for `CC(C)=CCC1=C(OCc2cn(C3CC(CO)OC3n3cc(C)c(=O)[nH]c3=O)nn2)C(=O)c2ccccc2C1=O` (centres undefined), in data set [12], the CC50 worked out at 60.7 µM. For `Oc1ccc(-c2cc(-c3ccc(O)c(O)c3)nc(NCCCCNc3ccnc4cc(Cl)ccc34)n2)cc1`, in data set [21], the concentration for half-maximal inhibition (IC50) came to 1620 nM.
